Measured values reported in US11793782B2, “Therapeutic agents for neurodegenerative diseases” (priority 2017, dated 2023).

Assays:
[1] = system: restless leg syndrome patients; experiment: Case studies, restless legs syndrome (IRLS score); assay type: in vivo, human
Text: A widely reported rating scale known as the International Restless Leg Syndrome Study Group Rating Scale (“IRLS”) was developed by the International Restless Legs Syndrome Study Group (“IRLSSG”) (http://www.irlssg.org/) (Walters et al., Validation of the International Restless Legs Syndrome Study Group rating scale for restless legs syndrome. Sleep medicine. 2003 Apr. 1; 4(2):121-32). The IRLS is a 10-item scale with scores ranging from 0 (no symptoms) to 40. Scores >30 are considered very severe, severe (Score 21-30), moderate (scores 11-20) and ≤10, mild. Use of the scale is common for clinical assessment, research and therapeutic trials with RLS. In one embodiment, treatment with leucine, acetyl-leucine, or a pharmaceutically acceptable salt thereof as described herein decreases the subject's International Restless Leg Syndrome Study Group Rating Scale (“IRLS”) compared to a baseline. In one embodiment, the IRLS is reduced compared to baseline by at least 10%, at least 20%, at least 30%, at least 40%, or at least 50%. In one embodiment, the IRLS is reduced by at least 60%, at least 70%, at least 80%, at least 90%, or 100%.
The patient in this case study was a person showing proximal weakness of the so lower limb. […] Upon consultation, they reported no sensory symptoms but complained of a restless leg syndrome at night and during resting periods of the day, occurring over the course of the last two years. Pre-treatment with dopamine agonist were without symptom relief. Serum creatine kinase activity was only mildly elevated at up to 400 IU/L. The patient was evaluated using the RLS diagnostic index (RLS-DI) (see Walters et al., Sleep Med 2003; 4(2):121-132;). The patient's International Restless Legs Syndrome Rating Scale score (IRLS) was 36, and thus a severe RLS was diagnosed. […] Re-introduction of the treatment re-declined the score to 8 after 2 weeks. Continuation of treatment over more than 22 weeks stabilized the IRLS score at 8.
The patient in this case study was a person showing proximal weakness of the lower limb. […] Upon consultation, they reported no sensory symptoms but complained of a restless leg syndrome at night and during resting periods of the day, occurring over the course of the last eight years. […] Serum creatine kinase activity was mildly elevated at 300 IU/L. Iron measurements and all additional lab investigations were normal. The patient was evaluated using the RLS-DI and the patient's IRLS was 32, and thus a moderate to severe RLS was diagnosed. […] Continuation of treatment over more than 28 weeks stabilized the IRLS score at 8.
The patient in this case study was a person showing mild proximal weakness of the upper and lower limbs slowly progressive. The patient had been diagnosed (genetically confirmed) with McArdle myopathy about 16 years ago. Upon consultation, they reported no sensory symptoms but complained about a severe fatigue and reduced stamina. The patient further reported a restless leg syndrome at night and during resting periods of the day, occurring over the course of the last 12 years. […] Serum creatine kinase activity was mildly elevated at 200 IU/L; however, the patient had 5 episodes of rhabdomyolysis during the past 20 years. Repeated iron measurements and all additional lab investigations were normal. The patient was evaluated using the RLS-DI and the patient's IRLS was 34, and thus a severe RLS was diagnosed. […] Continuation of treatment over more than 30 weeks stabilized the IRLS score at 10. In addition, the patient's fatigue declined (Fatigue Severit Scale: 9 (minimum) to 63 (maximum)) from 53 to 28.

[2] = system: NPC Chinese Hamster Ovary (CHO) cells; experiment: Relative lysosomal volume via LysoTracker, NPC CHO cells; assay type: cell-based; details: 1 mM, 72 hours, p<0.01 versus untreated NPC1-null
Text: Relative lysosomal volume was quantified via LysoTracker.

[3] = system: Lewy Body dementia patient; experiment: Case study, Lewy Body dementia; assay type: in vivo, human; details: Levodopa 100 mg 4× daily and Quetiapin 25 mg at night
Procedure: The patient started taking acetyl-leucine (3 g/day for one week; 5 g/day thereafter) and was evaluated after four weeks. […] Medication was reduced to 3 g/day, and the patient was instructed to stop medication about two weeks later.

[4] = system: downbeat nystagmus patients; experiment: Case studies, downbeat nystagmus patients; assay type: in vivo, human; details: downbeat nystagmus Patient 1; 10 mg twice daily for four weeks
Text: The patient was diagnosed with downbeat nystagmus: the patient was severely impaired by blurred vision (oscillopsia) due to the nystagmus, and experienced difficulties while reading and writing. The patient's visual acuity was: right 0.75, left 0.67, binocular 0.83, and the downbeat nystagmus was documented by video-oculography. […] The patient could partially suppress the nystagmus by visual fixation, as evaluated using a target center (dot presented in the center of a display for 30 seconds, FIG. 13A) and in complete darkness using goggles covered with special glasses for 45 seconds (FIG. 13B). The results (median of slow phase velocity, SPV) were as follows: Target Center-horizontal: −0.02°/s, vertical: 2.41°/s; Complete Darkness-horizontal: 0.05°/s, vertical: 3.27°/s (FIG. 13C).

[5] = system: downbeat nystagmus patients; experiment: Case studies, downbeat nystagmus patients; assay type: in vivo, human; details: downbeat nystagmus Patient 2
[6] = system: frontotemporal dementia with parkinsonism patient; experiment: Case study, frontotemporal dementia with parkinsonism; assay type: in vivo, human; details: frontotemporal dementia with parkinsonism patient; treatment with L-Dopa and Ropinirol
Text: After approximately one month of acetyl-leucine treatment, medication was stopped and the patient was re-examined 13 days later.

[7] = system: rat model of an acute unilateral labyrinthectomy; details: Zwergal et al. (2016); Gunther et al. (2015); cited from earlier work
ALS patients = experiment: Case studies, amyotrophic lateral sclerosis (ALS) patients; assay type: in vivo, human; details: ALS Patient 1; medication started around the time of ALS diagnosis
Text: The results were documented by video.

MSA-P patients [8] = experiment: Case studies, multiple system atrophy Parkinson type (MSA-P) patients; assay type: in vivo, human; details: MSA-P Patient 3
Text: Medication was stopped. […] The patient evaluated after one month on acetyl-DL-leucine. […] Episodes of mental confusion completely disappeared. The patient's cognitive structure seemed much clearer and straighter. […] The patient's spouse supported continuing the medication.

[9] = system: corticobasal syndrome patient; experiment: Case study, corticobasal syndrome; assay type: in vivo, human
Procedure: Gait analysis was performed before treatment commenced.

MSA-P patients [10] = experiment: Case studies, multiple system atrophy Parkinson type (MSA-P) patients; assay type: in vivo, human; details: MSA-P Patient 1; 100/25 mg 3×daily
[11] = system: progressive supranuclear palsy patients; experiment: Case studies, progressive supranuclear palsy patients; assay type: in vivo, human
Procedure: After 27 days of acetyl-leucine treatment, medication was stopped and the patient was re-examined 60 days later. […] Gait analysis was performed before treatment commenced. […] Gait analysis was performed before treatment commenced. After 17 days of treatment, medication was stopped and the patient was re-examined 4 days later. […] Gait analysis was performed before treatment commenced. After three weeks of treatment, medication was stopped and the patient was re-examined.

For `CC(C)C[C@H](CN)CC(=O)O` [pregabaline, reference compound], the “Symptom relief (pre-treatment)” value ([1]; RLS Patient 2) was “without sustained symptom relief” and the “Symptom relief (pre-treatment)” value ([1]; RLS Patient 3) was “without sustained symptom relief”.
For `CC(C)C[C@H](N)C(=O)O` [L-leucine], the “Lysosomal volume (LysoTracker)” value [2] was “significantly reduced lysosomal volume”.
For `OCCOCCN1CCN(C2=Nc3ccccc3Sc3ccccc32)CC1` [Quetiapin, reference compound], the Clinical response [3] was “improved the symptomatology”.
For `Nc1ccncc1` [4-aminopyridine, reference compound], the Clinical response [4] was “did not give rise to any benefit” and the Clinical response [5] was “did not benefit”.
In the case of `CC(=O)N[C@H](CC(C)C)C(=O)O` [acetyl-D-leucine], the “Lysosomal volume (LysoTracker)” value [2] was “significantly reduced lysosomal volume”.
For `CCCN(CCC)CCc1cccc2c1CC(=O)N2` [Ropinirol, reference compound], the Clinical response [6] was “little improvement”.
For `CC(=O)N[C@@H](CC(C)C)C(=O)O` [acetyl-L-leucine], the “Effect on postural compensation” value [7] is given as “significant effect” and the “Lysosomal volume (LysoTracker)” value [2] is given as “significantly reduced lysosomal volume”.
In the case of `Nc1nc2ccc(OC(F)(F)F)cc2s1` [Riluzol, reference compound], the Clinical symptomatology (ALS patients) was “clinical symptomatology remained unchanged”.
In the case of `CC(C)CC(N)C(=O)O` (racemic) [DL-leucine], the “Lysosomal volume (LysoTracker)” value [2] was “significantly reduced lysosomal volume”.
With `CC(C)C[C@@H](N)C(=O)O` [D-leucine] the “Lysosomal volume (LysoTracker)” value [2] was “significantly reduced lysosomal volume”.
In the case of `N[C@@H](Cc1ccc(O)c(O)c1)C(=O)O` [L-Dopa, reference compound], the Tolerability (MSA-P patients [8]) was “suspended due to side effects”, the Clinical response [9] was “no improvement” and the Clinical response [3] was “improved the symptomatology”. The “Symptom relief (pre-treatment)” value ([1]; RLS Patient 2) was “without sustained symptom relief”, the “Symptom relief (pre-treatment)” value ([1]; RLS Patient 3) was “without sustained symptom relief” and the Clinical response (MSA-P patients [10]) was “discreet Levodopa response”. The Clinical response ([11]; PSP Patient 1) was “little improvement”, the Clinical response ([11]; PSP Patient 2) was “no levodopa response” and the Clinical response ([11]; PSP Patient 3) was “no levodopa response”. For the same compound, the Clinical response ([11]; PSP Patient 4) was “slight levodopa response” and the Clinical response [6] was “little improvement”.
